Measurements taken from the NIST ThermoML archive (doi:10.1016/j.tca.2012.05.025).

How the values were obtained:
[1] = refractive index (Na D-line) (dimensionless); details: 101.33 kPa, Liquid, Standard Abbe refractometry
[2] = for surface tension liquid-gas: roughened platinum plate-detachment; for viscosity / mass density: 101 kPa, Liquid; for viscosity: Capillary tube (Ostwald / Ubbelohde) method; for mass density: Vibrating tube method
[3] = xn = mol fraction of the nth substance listed; details: x2 = 0; for surface tension liquid-gas: roughened platinum plate-detachment; for viscosity / mass density: 101 kPa, Liquid; for viscosity: Capillary tube (Ostwald / Ubbelohde) method; for mass density: Vibrating tube method
[4] = refractive index (Na D-line) (dimensionless); xn = mol fraction of the nth substance listed; details: 101 kPa, Liquid, Standard Abbe refractometry, x2 = 0

CN(C)CCCO [3-dimethylamino-1-propanol]
Details	mass density, [2] [kg/m3]	refractive index, [1]	surface tension liquid-gas, [2] [mN/m]	viscosity, [2] [mPa·s]
293.15 K	–	1.4368	–	–
298.15 K	880.25	1.4347	29.01	5.839
303.15 K	876.46	1.4326	29.28	4.963
308.15 K	–	1.4305	28.88	–
313.15 K	868.42	1.4285	28.47	4.266
318.15 K	–	1.4264	28.13	–
323.15 K	860.29	1.4243	27.63	3.253
328.15 K	–	1.4222	–	–
333.15 K	852.1	1.42	26.81	2.768
343.15 K	843.77	–	–	2.03

O [water]
Details	mass density, [2] [kg/m3]	refractive index, [1]	surface tension liquid-gas, [2] [mN/m]	viscosity, [2] [mPa·s]
293.15 K	–	1.333	–	–
298.15 K	–	1.3325	72.09	0.882
303.15 K	–	1.3319	71.27	0.804
308.15 K	–	1.3314	70.44	–
313.15 K	–	1.3307	69.66	0.659
318.15 K	–	1.3299	68.83	–
323.15 K	988.03	1.3291	67.95	0.551
328.15 K	–	1.3282	–	–
333.15 K	983.19	1.3273	66.23	0.47
343.15 K	977.75	–	–	0.407

O [water] + CN(C)CCCO
Details	mass density, [3] [kg/m3]	refractive index, [4]	surface tension liquid-gas, [3] [mN/m]	viscosity, [3] [mPa·s]
293.15 K	–	1.333	–	–
298.15 K	–	1.3325	72.09	0.882
303.15 K	–	1.3319	71.27	0.804
308.15 K	–	1.3314	70.44	–
313.15 K	–	1.3307	69.66	0.659
318.15 K	–	1.3299	68.83	–
323.15 K	988.03	1.3291	67.95	0.551
328.15 K	–	1.3282	–	–
333.15 K	983.19	1.3273	66.23	0.47
343.15 K	977.75	–	–	0.407
